In this experiment the target is T1, aPIIQGAP1 (C-terminal aPI binding domain of IQGAP1) (Homo sapiens, UniProt P46940).
T1 sequence (P46940 1551-1657): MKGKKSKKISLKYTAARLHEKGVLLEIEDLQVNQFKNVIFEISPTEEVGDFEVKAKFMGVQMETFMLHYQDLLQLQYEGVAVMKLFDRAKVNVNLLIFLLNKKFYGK
As to the kind of experiment: TR-FRET competition. The note with it: displacement of biotinylated PtdInsP3 (2.5 pmol); 50 nM GST fusion.

Usually IC50 stands for the midpoint of a concentration-inhibition curve. A lower IC50 goes with greater potency. As for PtdInsP3, the IC50 was around 0.5 µM.

These data come from paper PMC3391087 (The Journal of Biological Chemistry, 2012).
